These results are taken from ChEMBL document CHEMBL5058643, “Data for DCP probe BI-2081” (2022).

For orientation: Ki means the equilibrium dissociation constant of an inhibitor or competing ligand from its target. In general, inhibition refers to the drop in the measured response relative to a control, in per cent.

SMILES strings stand for the structures. Calls of active or inactive are those of the source. The rule behind the calls is not given here.

Data set [1] concerns the target Free fatty acid receptor 1 (Homo sapiens, UniProt O14842). Briefly: FFAR1 biochemical assay.
Data set [2] concerns the target Sodium-dependent dopamine transporter (Homo sapiens) (UniProt Q01959). Briefly: DATRANS/H Eurofins SafetyScreen44 (BI). The following applies: Compound concentration 10.0 uM.
Data set [3] has as its target Epidermal growth factor receptor (Homo sapiens) (UniProt P00533). Kind of data set: EGF/HU Eurofins SafetyScreen44 (BI). As to conditions: Compound concentration 10.0 uM.
For data set [4], the target named is T1, Muscarinic acetylcholine receptor M1 (Homo sapiens) (UniProt P11229).
T1 sequence (whole entry): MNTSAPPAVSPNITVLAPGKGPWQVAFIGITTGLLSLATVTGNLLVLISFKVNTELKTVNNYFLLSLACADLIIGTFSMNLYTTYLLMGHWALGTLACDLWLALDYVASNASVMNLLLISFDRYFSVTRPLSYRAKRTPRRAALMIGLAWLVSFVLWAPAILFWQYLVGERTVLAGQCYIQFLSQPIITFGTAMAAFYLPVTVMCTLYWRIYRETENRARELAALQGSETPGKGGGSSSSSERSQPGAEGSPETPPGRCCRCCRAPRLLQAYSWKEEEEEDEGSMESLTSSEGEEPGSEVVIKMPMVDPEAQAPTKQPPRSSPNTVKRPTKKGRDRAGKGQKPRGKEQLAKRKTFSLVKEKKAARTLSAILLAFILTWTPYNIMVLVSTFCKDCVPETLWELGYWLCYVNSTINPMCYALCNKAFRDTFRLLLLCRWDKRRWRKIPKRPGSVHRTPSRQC
Briefly: M1/HU Eurofins SafetyScreen44 (BI). The following applies: Compound concentration 10.0 uM.

The target of data set [5] is Acetylcholine receptor subunit alpha (Homo sapiens) (UniProt P02708). Briefly: NACH/H Eurofins SafetyScreen44 (BI). The following applies: Compound concentration 10.0 uM.
Acetylcholine receptor subunit alpha (Homo sapiens), sequence (P02708 whole entry): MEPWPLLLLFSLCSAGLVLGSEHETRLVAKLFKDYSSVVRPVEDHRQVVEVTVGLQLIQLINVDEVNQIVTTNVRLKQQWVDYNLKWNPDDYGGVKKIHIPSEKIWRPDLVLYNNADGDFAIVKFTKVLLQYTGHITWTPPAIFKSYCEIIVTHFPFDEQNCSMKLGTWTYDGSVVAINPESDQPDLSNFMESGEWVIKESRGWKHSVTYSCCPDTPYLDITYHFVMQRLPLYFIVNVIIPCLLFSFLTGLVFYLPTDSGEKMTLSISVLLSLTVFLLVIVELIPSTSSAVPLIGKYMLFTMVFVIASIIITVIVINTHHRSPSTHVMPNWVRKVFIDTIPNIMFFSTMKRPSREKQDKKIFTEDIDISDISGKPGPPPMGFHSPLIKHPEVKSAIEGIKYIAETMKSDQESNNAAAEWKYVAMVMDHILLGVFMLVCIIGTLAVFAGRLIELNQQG
For data set [6], the target named is Prostaglandin E2 receptor EP4 subtype (Homo sapiens) (UniProt P35408). Briefly: PEP4_HU Eurofins SafetyScreen44 (BI).
Prostaglandin E2 receptor EP4 subtype (Homo sapiens), sequence (P35408 whole entry): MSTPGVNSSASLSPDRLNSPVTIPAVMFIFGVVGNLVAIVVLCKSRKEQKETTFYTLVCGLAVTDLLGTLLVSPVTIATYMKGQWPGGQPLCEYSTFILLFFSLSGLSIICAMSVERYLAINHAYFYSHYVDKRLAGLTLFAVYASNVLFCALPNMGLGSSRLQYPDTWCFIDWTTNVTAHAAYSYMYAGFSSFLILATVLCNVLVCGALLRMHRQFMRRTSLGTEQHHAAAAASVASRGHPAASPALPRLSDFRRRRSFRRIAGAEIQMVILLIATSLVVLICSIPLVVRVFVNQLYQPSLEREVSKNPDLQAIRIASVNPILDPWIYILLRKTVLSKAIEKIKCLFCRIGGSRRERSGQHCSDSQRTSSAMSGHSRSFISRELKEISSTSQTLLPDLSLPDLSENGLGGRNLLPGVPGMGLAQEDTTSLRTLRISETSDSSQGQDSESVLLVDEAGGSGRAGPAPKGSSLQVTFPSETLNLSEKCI
Data set [7] has as its target T2, Thyroid hormone receptor alpha (Rattus norvegicus) (UniProt P63059).
T2 sequence (whole entry): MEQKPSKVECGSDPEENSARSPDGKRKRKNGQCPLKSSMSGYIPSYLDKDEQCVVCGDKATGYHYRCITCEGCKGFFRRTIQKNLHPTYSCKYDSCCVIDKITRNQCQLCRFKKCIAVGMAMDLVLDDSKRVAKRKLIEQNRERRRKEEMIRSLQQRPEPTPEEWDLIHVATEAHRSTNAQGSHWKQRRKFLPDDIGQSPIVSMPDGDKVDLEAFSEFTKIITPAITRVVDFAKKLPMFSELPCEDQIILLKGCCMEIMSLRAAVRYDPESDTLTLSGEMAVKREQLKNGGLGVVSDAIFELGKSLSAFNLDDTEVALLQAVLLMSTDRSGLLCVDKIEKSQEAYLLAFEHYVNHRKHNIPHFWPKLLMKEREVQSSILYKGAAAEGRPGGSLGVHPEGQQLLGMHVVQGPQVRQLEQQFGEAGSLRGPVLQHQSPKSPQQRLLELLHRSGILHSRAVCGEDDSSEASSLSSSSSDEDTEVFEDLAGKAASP
Briefly: THYROID HORM Eurofins SafetyScreen44 (BI).

For data set [8], the target named is Neuropeptide Y receptor type 1 (Homo sapiens) (UniProt P25929). Kind of data set: Y1/HU Eurofins SafetyScreen44 (BI). As to conditions: Compound concentration 10.0 uM.
Neuropeptide Y receptor type 1 (Homo sapiens), sequence (P25929 whole entry): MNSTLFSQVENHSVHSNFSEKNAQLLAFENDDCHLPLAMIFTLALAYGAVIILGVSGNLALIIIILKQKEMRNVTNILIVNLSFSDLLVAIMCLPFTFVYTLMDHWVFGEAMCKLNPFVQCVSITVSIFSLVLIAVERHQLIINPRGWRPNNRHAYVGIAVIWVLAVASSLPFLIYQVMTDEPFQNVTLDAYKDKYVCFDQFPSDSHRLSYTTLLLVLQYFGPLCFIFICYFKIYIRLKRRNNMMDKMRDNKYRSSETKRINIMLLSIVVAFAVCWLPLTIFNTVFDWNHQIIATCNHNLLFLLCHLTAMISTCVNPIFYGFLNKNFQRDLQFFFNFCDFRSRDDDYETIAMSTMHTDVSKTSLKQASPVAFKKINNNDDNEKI
The target in data set [9] is Neuropeptide Y receptor type 2 (Homo sapiens) (UniProt P49146). Kind of data set: Y2/HU Eurofins SafetyScreen44 (BI). As to conditions: Compound concentration 10.0 uM.
Neuropeptide Y receptor type 2 (Homo sapiens), sequence (P49146 whole entry): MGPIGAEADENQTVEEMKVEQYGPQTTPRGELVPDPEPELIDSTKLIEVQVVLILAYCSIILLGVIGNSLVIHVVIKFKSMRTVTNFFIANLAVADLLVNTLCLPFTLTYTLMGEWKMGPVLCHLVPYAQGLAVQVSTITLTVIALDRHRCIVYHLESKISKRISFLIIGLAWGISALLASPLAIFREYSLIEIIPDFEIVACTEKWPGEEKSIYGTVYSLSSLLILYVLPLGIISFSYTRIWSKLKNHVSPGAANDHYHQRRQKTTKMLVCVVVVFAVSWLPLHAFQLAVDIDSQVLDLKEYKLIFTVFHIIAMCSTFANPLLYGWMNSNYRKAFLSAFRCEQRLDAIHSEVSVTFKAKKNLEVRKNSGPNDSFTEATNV
In data set [10] the target is 5-hydroxytryptamine receptor 2C (Homo sapiens) (UniProt P28335). As to conditions: Compound concentration 10.0 uM.
5-hydroxytryptamine receptor 2C (Homo sapiens), sequence (P28335 whole entry): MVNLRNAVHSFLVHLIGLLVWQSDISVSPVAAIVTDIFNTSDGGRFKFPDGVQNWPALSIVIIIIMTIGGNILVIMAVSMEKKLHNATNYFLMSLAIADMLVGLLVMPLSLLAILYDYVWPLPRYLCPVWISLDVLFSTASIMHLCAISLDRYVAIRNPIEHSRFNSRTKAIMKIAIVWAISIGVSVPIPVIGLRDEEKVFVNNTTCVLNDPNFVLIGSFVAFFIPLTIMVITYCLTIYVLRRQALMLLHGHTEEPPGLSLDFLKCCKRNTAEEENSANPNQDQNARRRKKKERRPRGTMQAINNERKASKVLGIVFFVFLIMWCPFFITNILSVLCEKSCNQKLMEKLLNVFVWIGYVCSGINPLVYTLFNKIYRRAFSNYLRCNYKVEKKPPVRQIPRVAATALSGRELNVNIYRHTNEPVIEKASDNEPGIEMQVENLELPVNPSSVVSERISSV
Data set [11] concerns the target 5-hydroxytryptamine receptor 6 (Homo sapiens) (UniProt P50406). As to conditions: Compound concentration 10.0 uM.
The target in data set [12] is Beta-3 adrenergic receptor (Homo sapiens) (UniProt P13945). As to conditions: Compound concentration 10.0 uM.
Beta-3 adrenergic receptor (Homo sapiens), sequence (P13945 whole entry, looked up): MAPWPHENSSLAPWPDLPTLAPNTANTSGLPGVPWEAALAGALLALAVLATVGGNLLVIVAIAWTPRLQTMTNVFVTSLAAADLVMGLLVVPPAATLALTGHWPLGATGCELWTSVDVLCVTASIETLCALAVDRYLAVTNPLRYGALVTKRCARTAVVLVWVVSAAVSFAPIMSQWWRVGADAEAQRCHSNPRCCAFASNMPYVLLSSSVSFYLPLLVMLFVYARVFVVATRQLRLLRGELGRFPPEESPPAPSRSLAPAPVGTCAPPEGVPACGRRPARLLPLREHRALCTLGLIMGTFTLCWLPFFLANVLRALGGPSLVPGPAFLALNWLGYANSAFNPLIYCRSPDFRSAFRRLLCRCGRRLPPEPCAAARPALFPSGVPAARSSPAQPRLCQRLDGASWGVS
Data set [13] concerns the target T3, Alpha-1D adrenergic receptor (Homo sapiens) (UniProt P25100).
T3 sequence (whole entry): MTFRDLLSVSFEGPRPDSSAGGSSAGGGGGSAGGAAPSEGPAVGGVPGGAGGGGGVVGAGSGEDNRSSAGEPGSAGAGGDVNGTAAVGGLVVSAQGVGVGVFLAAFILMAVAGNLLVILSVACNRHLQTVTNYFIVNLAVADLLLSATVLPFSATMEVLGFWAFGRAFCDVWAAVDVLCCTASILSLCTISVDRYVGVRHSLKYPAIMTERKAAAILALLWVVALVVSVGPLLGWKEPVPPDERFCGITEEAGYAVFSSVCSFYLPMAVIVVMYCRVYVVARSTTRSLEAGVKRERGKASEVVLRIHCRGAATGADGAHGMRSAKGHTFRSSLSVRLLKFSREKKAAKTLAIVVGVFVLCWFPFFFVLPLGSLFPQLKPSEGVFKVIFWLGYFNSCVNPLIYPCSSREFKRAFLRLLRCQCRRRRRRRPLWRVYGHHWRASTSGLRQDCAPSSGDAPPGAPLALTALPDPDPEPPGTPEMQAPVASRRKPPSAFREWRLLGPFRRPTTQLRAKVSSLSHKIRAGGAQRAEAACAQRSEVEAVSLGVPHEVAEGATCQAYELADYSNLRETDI
As to conditions: Compound concentration 10.0 uM.

In data set [14] the target is Sigma non-opioid intracellular receptor 1 (Homo sapiens) (UniProt Q99720). As to conditions: Compound concentration 10.0 uM.
Sigma non-opioid intracellular receptor 1 (Homo sapiens), sequence (Q99720 whole entry): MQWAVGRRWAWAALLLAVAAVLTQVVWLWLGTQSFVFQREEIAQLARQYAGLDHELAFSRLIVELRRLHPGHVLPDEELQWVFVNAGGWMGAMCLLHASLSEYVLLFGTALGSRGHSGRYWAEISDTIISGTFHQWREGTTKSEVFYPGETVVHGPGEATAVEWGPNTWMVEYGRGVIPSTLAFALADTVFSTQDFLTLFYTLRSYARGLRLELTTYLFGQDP
Data set [15] deals with Cannabinoid receptor 1 (Homo sapiens) (UniProt P21554). Kind of data set: CB1(HU)_AGON Eurofins SafetyScreen44 (BI). As to conditions: filed as agonist; Compound concentration 10.0 uM.
Cannabinoid receptor 1 (Homo sapiens), sequence (P21554 whole entry): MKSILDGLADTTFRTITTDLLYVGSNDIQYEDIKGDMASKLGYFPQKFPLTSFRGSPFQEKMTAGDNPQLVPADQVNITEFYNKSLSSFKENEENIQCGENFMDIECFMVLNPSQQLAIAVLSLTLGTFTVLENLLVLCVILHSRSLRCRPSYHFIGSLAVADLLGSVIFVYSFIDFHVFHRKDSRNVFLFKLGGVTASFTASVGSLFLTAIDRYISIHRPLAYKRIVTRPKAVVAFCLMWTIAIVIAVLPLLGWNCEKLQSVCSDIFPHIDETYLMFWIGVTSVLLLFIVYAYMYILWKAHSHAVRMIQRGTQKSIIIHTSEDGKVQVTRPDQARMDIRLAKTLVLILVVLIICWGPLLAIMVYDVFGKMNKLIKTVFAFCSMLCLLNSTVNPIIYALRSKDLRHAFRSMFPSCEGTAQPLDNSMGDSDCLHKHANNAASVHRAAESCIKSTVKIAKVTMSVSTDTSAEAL
Data set [16] addresses Sodium-dependent dopamine transporter (Homo sapiens) (UniProt Q01959). Briefly: DATRANS/HUM Eurofins SafetyScreen44 (BI). As to conditions: Compound concentration 10.0 uM.
Data set [17] deals with Glucocorticoid receptor (Homo sapiens) (UniProt P04150). Briefly: GCORTICOID/H Eurofins SafetyScreen44 (BI). The following applies: Compound concentration 10.0 uM.
Data set [18] deals with MAO-A (amine oxidase [flavin-containing] A) (Rattus norvegicus, UniProt P21396). Kind of data set: MAO-A_ANTAG Eurofins SafetyScreen44 (BI). Also on record: mode of action antagonist; scale not given: the % may be the effect or the level left. The following applies: compound concentration 10 uM, read-out: % Ctrl.

5-hydroxytryptamine receptor 6 (Homo sapiens), sequence (P50406 whole entry): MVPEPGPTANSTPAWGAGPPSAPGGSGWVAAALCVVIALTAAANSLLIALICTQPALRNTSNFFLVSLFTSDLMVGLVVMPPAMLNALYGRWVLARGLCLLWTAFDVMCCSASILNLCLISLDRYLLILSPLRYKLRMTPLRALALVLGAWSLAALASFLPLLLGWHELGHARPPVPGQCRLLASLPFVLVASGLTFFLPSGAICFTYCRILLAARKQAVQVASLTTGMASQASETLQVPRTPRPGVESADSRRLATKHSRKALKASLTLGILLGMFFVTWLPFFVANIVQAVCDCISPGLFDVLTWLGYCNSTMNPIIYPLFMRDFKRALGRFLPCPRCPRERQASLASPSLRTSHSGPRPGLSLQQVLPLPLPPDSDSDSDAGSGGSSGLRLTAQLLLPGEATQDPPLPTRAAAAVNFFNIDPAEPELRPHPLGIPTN
Sodium-dependent dopamine transporter (Homo sapiens), sequence (Q01959 whole entry): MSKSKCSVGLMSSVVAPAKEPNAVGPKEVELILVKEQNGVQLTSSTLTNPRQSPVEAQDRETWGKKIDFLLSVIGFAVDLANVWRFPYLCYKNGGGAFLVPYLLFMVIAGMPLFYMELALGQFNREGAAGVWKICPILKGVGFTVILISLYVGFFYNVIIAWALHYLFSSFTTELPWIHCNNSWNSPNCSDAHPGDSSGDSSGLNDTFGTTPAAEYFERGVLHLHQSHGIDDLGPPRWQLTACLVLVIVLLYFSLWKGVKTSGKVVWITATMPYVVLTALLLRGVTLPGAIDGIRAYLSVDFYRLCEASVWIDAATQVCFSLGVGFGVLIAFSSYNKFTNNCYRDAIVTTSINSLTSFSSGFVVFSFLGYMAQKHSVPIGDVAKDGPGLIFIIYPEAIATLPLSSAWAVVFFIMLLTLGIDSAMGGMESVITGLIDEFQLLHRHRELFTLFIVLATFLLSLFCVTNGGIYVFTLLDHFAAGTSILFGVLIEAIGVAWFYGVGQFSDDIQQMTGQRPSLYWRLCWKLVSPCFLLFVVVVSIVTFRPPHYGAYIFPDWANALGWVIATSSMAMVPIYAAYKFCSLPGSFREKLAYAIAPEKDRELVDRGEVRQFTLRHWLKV
Free fatty acid receptor 1, sequence (O14842 whole entry): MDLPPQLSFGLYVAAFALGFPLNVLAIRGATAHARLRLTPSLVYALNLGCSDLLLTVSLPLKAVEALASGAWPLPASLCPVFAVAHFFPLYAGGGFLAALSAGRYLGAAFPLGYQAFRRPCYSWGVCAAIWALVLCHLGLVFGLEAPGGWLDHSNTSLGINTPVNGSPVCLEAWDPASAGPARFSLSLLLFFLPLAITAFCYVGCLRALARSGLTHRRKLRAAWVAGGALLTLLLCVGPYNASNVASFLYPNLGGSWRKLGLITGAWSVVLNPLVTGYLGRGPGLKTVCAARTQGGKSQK

Consider `Cc1cc(OCCC(C)(C)O)cc(C)c1-c1ccc(F)c2c1CC[C@H]2Oc1ccc2c(c1)OC[C@H]2CC(=O)O`, for which the Ki in data set [1] is 23 nM (active). The residual activity in [2] was 68%; in [3], 99%; in data set [4] it was 83%; in data set [5], 115%; in [6] (Compound concentration 0.3 uM), 102%; in data set [6] (Compound concentration 1.0 uM), 108%. The residual activity in data set [6] (Compound concentration 3.0 uM) is 92%; in data set [6] (Compound concentration 10.0 uM), 55%; in [6] (Compound concentration 30.0 uM), 11%; in [7] (Compound concentration 0.3 uM) it was 97%; in [7] (Compound concentration 1.0 uM), 95%; in data set [7] (Compound concentration 3.0 uM), 77%. The residual activity in [7] (Compound concentration 10.0 uM) was 39.5%; in data set [7] (Compound concentration 30.0 uM) it was 2%; in data set [8] it was 108%; in data set [9], 99%. Further, the inhibition is -4.94% in [10]; -2.53% in data set [11]; 20.2% in data set [12]; 5.84% in data set [13]; 25.4% in data set [14].

On to `COCCCS(=O)(=O)c1cc(C)c(-c2ccc(F)c3c2CC[C@H]3Oc2ccc3c(c2)OC[C@H]3CC(=O)O)c(C)c1`, for which the figures for the residual activity in data set [15], in [16] and in [17] were 102%, 84% and 43%, respectively. Further, in data set [18], the activity at 10 µM is 94% (not active). For the same compound, the inhibition in [10] was 2.87%; in [11], -8.04%; in [12], 11.6%; in [13] it was -5.9%; in data set [14] it was 15.2%.
